Data published in ChEMBL document CHEMBL4680105, “Discovery of Benzenesulfonamide Derivatives as Carbonic Anhydrase Inhibitors with Effective Anticonvulsant Action: Design, Synthesis, and Pharmacological Evaluation” (J Med Chem, 2018).
Blank lines part the entries; values can stand above or below the compound they belong to.

Columns and labels:
Carbonic anhydrase 9 = Carbonic anhydrase 9 (Homo sapiens, UniProt Q16790); assay: Inhibition of recombinant human carbonic anhydrase 9 by stopped-flow CO2 hydration assay
Mus musculus [1] = assay: (§1) Anticonvulsant activity in Swiss Albino mouse model of maximal electroshock-induced seizure assessed as protection against seizure by measuring suppression of hind limb extension at 30 mg/kg, ip pretreated for 30 mins before seizure stimulation and measured after 3 hrs by MES test relative to control; format: functional; settings: time 3.5 hrs
Mus musculus [2] = assay: Anticonvulsant activity in Swiss Albino mouse assessed as protection against seizure at 30 mg/kg, ip measured after 3 hrs by sc-PTZ seizure test relative to control; format: functional
Mus musculus [3] = assay: Anticonvulsant activity in Swiss Albino mouse assessed as protection against seizure at 100 mg/kg, ip measured after 0.5 hrs by sc-PTZ seizure test relative to control; format: functional
Mus musculus [4] = assay: as §1, with “at 100” for “at 30”, “after 0.5” for “after 3”; format: functional; settings: time 60 min, 1 h
Mus musculus [5] = assay: as §1, with “at 100” for “at 30”; format: functional; settings: 0.5 h
Mus musculus [6] = assay: Anticonvulsant activity in Swiss Albino mouse assessed as protection against seizure at 100 mg/kg, ip measured after 3 hrs by sc-PTZ seizure test relative to control; format: functional
Mus musculus [7] = assay: as §1, with “after 0.5” for “after 3”; format: functional; settings: time 60 min, 1 h
Mus musculus [8] = assay: Anticonvulsant activity in Swiss Albino mouse assessed as protection against seizure at 30 mg/kg, ip measured after 0.5 hrs by sc-PTZ seizure test relative to control; format: functional
[9] = Hematological toxicity in Wistar rat assessed as eosinophils level at 100 mg/kg, po for 14 days (reference value: 2.3 +/- 1.2%); format: organism-based; settings: in vivo, 336 h, time 14 day
Mus musculus [10] = assay: as §1, with “mg/kg, po” for “mg/kg, ip”, “after 0.5” for “after 3”; format: functional; settings: time 60 min, 1 h
[11] = Renal toxicity in Wistar rat assessed as uric acid level at 100 mg/kg, po for 14 days (reference value: 4.33 +/- 2.5 mg/dL) by kidney function test; format: organism-based; settings: in vivo, 336 h, time 14 day
Mus musculus [12] = assay: as §1, with “mg/kg, po” for “mg/kg, ip”, “after 0.25” for “after 3”; format: functional; settings: 0.5 h
Mus musculus [13] = assay: as §1, with “mg/kg, po” for “mg/kg, ip”, “after 4” for “after 3”; format: functional; settings: time 4.5 hrs
Mus musculus [14] = assay: as §1, with “after 2” for “after 3”; format: functional; settings: time 2.5 hrs
[15] = Renal toxicity in Wistar rat assessed as blood urea level at 100 mg/kg, po for 14 days (Rvb =34.7 +/- 9.9 mg/dL) by kidney function test; format: organism-based; settings: in vivo, 336 h, time 14 day
Mus musculus [16] = assay: as §1, with “mg/kg, po” for “mg/kg, ip”, “after 2” for “after 3”; format: functional; settings: time 2.5 hrs
[17] = Sub-acute toxicity in Wistar rat assessed as mortality level at 100 mg/kg, po for 14 days; format: organism-based; settings: in vivo, 336 h, time 14 day
Mus musculus [18] = assay: as §1, with “after 6” for “after 3”; format: functional; settings: time 6.5 hrs
[19] = Sub-acute toxicity in Wistar rat at 100 mg/kg, po for 14 days; format: organism-based; settings: in vivo, 336 h, time 14 day
[20] = Renal toxicity in Wistar rat assessed as Na+ level at 100 mg/kg, po for 14 days (reference value: 144 +/- 2.8 mequiv/L) by kidney function test; format: organism-based; settings: in vivo, 336 h, time 14 day
[21] = Hepatotoxicity in Wistar rat assessed as SGPT level at 100 mg/kg, po for 14 days (reference value: 59.2 +/- 12.5 U/L) by liver function test; format: toxicity, organism-based; settings: in vivo, 336 h, time 14 day
[22] = Hematological toxicity in Wistar rat assessed as platelet count level at 100 mg/kg, po for 14 days (reference value: 698 +/- 156 10^3/mm3); format: organism-based; settings: in vivo, 336 h, time 14 day
[23] = Renal toxicity in Wistar rat assessed as phosphorus level at 100 mg/kg, po for 14 days (reference value: 9.4 +/- 2.0 mg/dL) by kidney function test; format: organism-based; settings: in vivo, 336 h, time 14 day
[24] = Hepatotoxicity in Wistar rat assessed as total protein level at 100 mg/kg, po for 14 days (reference value: 6.35 +/- 0.46 g/dL) by liver function test; format: toxicity, organism-based; settings: in vivo, 336 h, time 14 day
[25] = Hematological toxicity in Wistar rat assessed as TLC level at 100 mg/kg, po for 14 days (reference value: 6.3 +/- 1.4 10^3/ml); format: organism-based; settings: in vivo, 336 h, time 14 day
Mus musculus [26] = assay: as §1, with “after 4” for “after 3”; format: functional; settings: time 4.5 hrs
[27] = Hematological toxicity in Wistar rat assessed as RBC level at 100 mg/kg, po for 14 days (reference value: 7.9 +/- 0.94 10^6/mm3); format: organism-based; settings: in vivo, 336 h, time 14 day
[28] = Renal toxicity in Wistar rat assessed as K+ level at 100 mg/kg, po for 14 days (reference value: 4.82 +/- 0.3 mequiv/L) by kidney function test; format: organism-based; settings: in vivo, 336 h, time 14 day
Mus musculus [29] = assay: as §1, with “mg/kg, po” for “mg/kg, ip”, “after 1” for “after 3”; format: functional; settings: time 1.5 hrs
[30] = Hematological toxicity in Wistar rat assessed as neutrophils level at 100 mg/kg, po for 14 days (reference value: 20.8 +/- 5.8%); format: organism-based; settings: in vivo, 336 h, time 14 day
[31] = Renal toxicity in Wistar rat assessed as Cl- level at 100 mg/kg, po for 14 days (reference value: 105.5 +/- 6.5 mequiv/L) by kidney function test; format: organism-based; settings: in vivo, 336 h, time 14 day
[32] = Hematological toxicity in Wistar rat assessed as lymphocytes level at 100 mg/kg, po for 14 days (reference value: 74.6 +/- 4.3%); format: organism-based; settings: in vivo, 336 h, time 14 day
[33] = Renal toxicity in Wistar rat assessed as calcium level at 100 mg/kg, po for 14 days (reference value: 10.3 +/- 1.8 mg/dL) by kidney function test; format: organism-based; settings: in vivo, 336 h, time 14 day
Mus musculus [34] = assay: as §1, with “after 1” for “after 3”; format: functional; settings: time 1.5 hrs
[35] = Neurotoxicity in Swiss Albino mouse by rotarod test at 30 mg/kg. ip measured up to 120 mins by rotarod test; format: toxicity, organism-based; settings: in vivo, 2 h
[36] = Hepatotoxicity in Wistar rat assessed as SGOT level at 100 mg/kg, po for 14 days (reference value: 59.9 +/- 11 U/L) by liver function test; format: toxicity, organism-based; settings: in vivo, 336 h, time 14 day
[37] = Hepatotoxicity in Wistar rat assessed as total bilirubin level at 100 mg/kg, po for 14 days (reference value: 0.32 +/- 0.09 mg/dL) by liver function test; format: toxicity, organism-based; settings: in vivo, 336 h, time 14 day
[38] = Renal toxicity in Wistar rat assessed as creatinine level at 100 mg/kg, po for 14 days (reference value: 0.75 +/- 0.1 mg/dL) by kidney function test; format: organism-based; settings: in vivo, 336 h, time 14 day
[39] = Hematological toxicity in Wistar rat assessed as Hb level at 100 mg/kg, po for 14 days (reference value: 12.7 +/- 1.5 g/dL); format: organism-based; settings: in vivo, 336 h, time 14 day
[40] = Hepatotoxicity in Wistar rat assessed as alkaline phosphatase level at 100 mg/kg, po for 14 days (reference value: 114.2 +/- 8.4 U/L) by liver function test; format: toxicity, organism-based; settings: in vivo, 336 h, time 14 day
[41] = Hematological toxicity in Wistar rat assessed as monocytes level at 100 mg/kg, po for 14 days (reference value: 2.5 +/- 1.5%); format: organism-based; settings: in vivo, 336 h, time 14 day
[42] = Hematological toxicity in Wistar rat assessed as basophils level at 100 mg/kg, po for 14 days (reference value: 0.3 +/- 0.5%); format: organism-based; settings: in vivo, 336 h, time 14 day

Structure (SMILES): NS(=O)(=O)c1ccc(CNC(=O)CCN2CCN(c3ncccn3)CC2)cc1
- Ki (Carbonic anhydrase 9): 455 nM

Structure (SMILES): NS(=O)(=O)c1ccc(CNC(=O)CCN2CCN(C(c3ccccc3)c3ccccc3)CC2)cc1
- Ki (Carbonic anhydrase 9): 890 nM

Structure (SMILES): COc1ccc(N2CCN(CC(=O)NCc3ccc(S(N)(=O)=O)cc3)CC2)cc1
- Ki (Carbonic anhydrase 9): 1100 nM

Structure (SMILES): NS(=O)(=O)c1ccc(CNC(=O)CN2CCN(C(c3ccccc3)c3ccccc3)CC2)cc1
- Ki (Carbonic anhydrase 9): 1680 nM

Structure (SMILES): NS(=O)(=O)c1ccc(CNC(=O)CN2CCN(c3ncccn3)CC2)cc1
- Activity (Mus musculus [1]): 67%
- Ki (Carbonic anhydrase 9): 2230 nM
- Activity (Mus musculus [2]): 50%
- Activity (Mus musculus [3]): 50%
- Activity (Mus musculus [4]): 50%
- Activity (Mus musculus [5]): 83%
- Activity (Mus musculus [6]): 50%
- Activity (Mus musculus [7]): 50%
- Activity (Mus musculus [8]): 33%

Structure (SMILES): NS(=O)(=O)c1ccc(CNC(=O)CCN2CCN(Cc3ccc4c(c3)OCO4)CC2)cc1
- Activity (Mus musculus [1]): 67%
- Activity [9]: 2.3%
- Activity (Mus musculus [10]): 50%
- Activity [11]: 2.73 mg/dL
- Activity (Mus musculus [12]): 17%
- Activity (Mus musculus [13]): 50%
- Activity (Mus musculus [14]): 60%
- Activity [15]: 39.8 mg/dL
- Activity (Mus musculus [16]): 67%
- Activity [17]: Non-Toxic
- Ki (Carbonic anhydrase 9): 104 nM
- Activity (Mus musculus [18]): 50%
- Activity [19]: Non-Toxic
- Activity [20]: 144 mEq/L
- Activity [21]: 52.9 U/L
- Activity [22]: 662.3 10^3/mm3
- Activity [23]: 6.8 mg/dL
- Activity [24]: 6.2 g/dL
- Activity [25]: 7.5 10^3/ml
- Activity (Mus musculus [26]): 70%
- Activity [27]: 7.7 10^6/mm3
- Activity [28]: 4.9 mEq/L
- Activity (Mus musculus [2]): 67%
- Activity (Mus musculus [29]): 67%
- Activity [30]: 22.3%
- Activity (Mus musculus [3]): 50%
- Activity [31]: 104.3 mEq/L
- Activity (Mus musculus [4]): 83%
- Activity (Mus musculus [5]): 67%
- Activity [32]: 74%
- Activity [33]: 9.9 mg/dL
- Activity (Mus musculus [34]): 80%
- Activity [35]: Non-Toxic
- Activity [36]: 64.2 U/L
- Activity [37]: 0.38 mg/dL
- Activity [38]: 0.75 mg/dL
- Activity [39]: 12.6 g/dL
- Activity [40]: 113.4 U/L
- Activity (Mus musculus [6]): 50%
- Activity [41]: 2.3%
- Activity [42]: 0.16%
- Activity (Mus musculus [7]): 67%
- Activity (Mus musculus [8]): 83%

Structure (SMILES): NS(=O)(=O)c1ccc(CNC(=O)CN2CCN(C(=O)OCc3ccccc3)CC2)cc1
- Activity (Mus musculus [1]): 67%
- Ki (Carbonic anhydrase 9): 1630 nM
- Activity (Mus musculus [2]): 17%
- Activity (Mus musculus [3]): 50%
- Activity (Mus musculus [4]): 67%
- Activity (Mus musculus [5]): 50%
- Activity (Mus musculus [6]): 33%
- Activity (Mus musculus [7]): 17%
- Activity (Mus musculus [8]): 67%

Structure (SMILES): NS(=O)(=O)c1ccc(CNC(=O)CN2CCN(c3ccc(C(F)(F)F)cc3)CC2)cc1
- Ki (Carbonic anhydrase 9): 1770 nM

The remaining compounds from weak to strong by Ki (Carbonic anhydrase 9), led by results:

- Ki (Carbonic anhydrase 9): 220 nM
Structure (SMILES): NS(=O)(=O)c1ccc(CNC(=O)CN2CCN(Cc3ccccc3)CC2)cc1

- Ki (Carbonic anhydrase 9): 137 nM
Structure (SMILES): NS(=O)(=O)c1ccc(CNC(=O)CCN2CCN(c3ccc(C(F)(F)F)cc3)CC2)cc1

- Ki (Carbonic anhydrase 9): 136 nM
Structure (SMILES): COc1ccc(N2CCN(CCC(=O)NCc3ccc(S(N)(=O)=O)cc3)CC2)cc1

- Ki (Carbonic anhydrase 9): 115 nM
Structure (SMILES): NS(=O)(=O)c1ccc(CNC(=O)CCN2CCN(c3ccc(F)cc3)CC2)cc1

- Ki (Carbonic anhydrase 9): 78.9 nM
Structure (SMILES): Cc1ccc(N2CCN(CCC(=O)NCc3ccc(S(N)(=O)=O)cc3)CC2)cc1
